Measured values as given in patent publication US20250163006A1, “New Coolants, and Preparations Containing Same” (Symrise AG, priority 2022, published 2025).
Read-outs that look alike come from different tables or passages of the source.

Target: T1, human TRPM8 receptor (Homo sapiens, UniProt Q7Z2W7)
T1 construct: expressed in transfected cells; host or cells: HEK293, stably transfected, tetracycline-inducible expression
Test: Assay on TRPM8 modulators: Ca2+-sensitive dye (Fluo-4) fluorescence in HEK293-TRPM8 test cells
Type: cell-based
Parameters: relative TRPM8 activation: concentration or dose not given beside the values
Settings: for relative TRPM8 activation: HEK293 cells recombinantly expressing human TRPM8; for EC50: HEK293-TRPM8 cells
Excerpt: The starting point for cloning the human TRPM8 receptor is an LnCaP cDNA bank. This is commercially available (e.g. BioChain, Hayward, USA) or can be produced from the andro gene-sensitive human prostate adenocarcinoma cell line LnCaP (e.g. ATCC, CRL1740 or ECACC, 891 1021 1) using standard kits.
The coding TRPM8 sequence (see e.g. http://www. ncbi.nlm.nih.gov/entrez/viewer.fcgi?db=nuccore&id=109689694) can be PCR-amplified and cloned using standard methods. The human TRPM8 gene isolated in this way was used to produce the plasmid plnd_M8. Alternatively, the TRPM8 gene can also be produced synthetically.
A stably transfected HEK293 cell line was produced as a test cell system using human TRPM8 DNA. Preference was given to HEK293, which offers the possibility of inducing TRPM8 expression using tetracycline via the plasmid introduced.
A test similar to the test already described in the literature by Behrendt H. J. et al, Br. J. Pharmacol. 141, 2004, 737-745, is performed. The agonization or antagonization of the receptor can be quantified using a Ca^2+-sensitive dye (e.g. FURA, Fluo-4 etc.). Agonists alone cause an increase in the Ca^2+ signal; antagonists cause a reduction in the Ca^2+ signal in the presence of e.g. menthol (detected in each case using the Fluo-4 dye, which has different fluorescence properties due to Ca^2+ ions).
First, a fresh culture of transformed HEK cells is prepared in cell culture flasks in the usual way. The HEK293-TRPM8 test cells are detached from the cell culture flasks using trypsin and 40,000 cells/well are seeded with 100 μl medium in 96-well plates (Greiner #655948 poly-D-lysine-coated). To induce the TRPM8 receptor, tetracycline is added to the growth medium (DMEM/HG, 10% FCS tetracycline-free, 4 mM L-glutamine, 15 μg/ml blasticidin, 100 μg/ml hygromycin B, 1 μg/ml tetracycline).
On the following day, the cells are loaded with Fluo-4AM dye and the test is performed. Proceed as follows: Addition of 100 μl/well staining solution Ca-4 kit (RB 141, Molecular Devices) to each 100 μl medium (DMEM/HG, 10% FCS tetracycline-free, 4 mM L-glutamine, 15 μg/ml blasticidin, 100 μg/ml hygromycin B, 1 μg/ml tetracycline).
Incubation in incubator, 30 minutes/37° C./5% CO2, 30 minutes/RT.
Preparation of the test substances (different concentrations in 200 μl HBSS buffer), as well as positive controls (different concentrations of menthol, icilin or lonomycin in 200 μl HBSS buffer) and negative controls (only 200 μl HBSS buffer) Addition of the test substances in quantities of 50 μl/well and measurement of the fluorescence change (e.g. in the assay device FLIPR, Molecular Devices or NovoStar, BMG) at 485 nm excitation, 520 nm emission, and evaluation of the potency of the different substances/concentrations and determination of the ECG. e.g. in the FLIPR assay device, Molecular Devices or NovoStar, BMG) at 485 nm excitation, 520 nm emission, and evaluation of the potency of the various substances/concentrations and determination of the EC50 values.
The test substances are used in triplicates in concentrations of 0.1-200 μM in the assay. Normally, the compounds are kept ready in DMSO solutions and diluted down to a maximum DMSO concentration of 2% for the assay.
The activity of the active substances in relation to activation of the TRPM8 channel is determined using the assay described. This is done in a concentration-dependent manner. For each active substance, 6 to 10 concentrations are measured as standard. A mathematical method (4-parameter or 5-parameter logistic curve fitting) can be used to determine the EC50 value as the inflection point of the sigmoidal curve from the activity values determined. These are standard biochemical methods that are familiar to experts.

[1] = TRPM8 activation, 6 to 10 concentrations, logistic curve fitting, read-out: EC50 value

T1 sequence (Q7Z2W7 whole entry): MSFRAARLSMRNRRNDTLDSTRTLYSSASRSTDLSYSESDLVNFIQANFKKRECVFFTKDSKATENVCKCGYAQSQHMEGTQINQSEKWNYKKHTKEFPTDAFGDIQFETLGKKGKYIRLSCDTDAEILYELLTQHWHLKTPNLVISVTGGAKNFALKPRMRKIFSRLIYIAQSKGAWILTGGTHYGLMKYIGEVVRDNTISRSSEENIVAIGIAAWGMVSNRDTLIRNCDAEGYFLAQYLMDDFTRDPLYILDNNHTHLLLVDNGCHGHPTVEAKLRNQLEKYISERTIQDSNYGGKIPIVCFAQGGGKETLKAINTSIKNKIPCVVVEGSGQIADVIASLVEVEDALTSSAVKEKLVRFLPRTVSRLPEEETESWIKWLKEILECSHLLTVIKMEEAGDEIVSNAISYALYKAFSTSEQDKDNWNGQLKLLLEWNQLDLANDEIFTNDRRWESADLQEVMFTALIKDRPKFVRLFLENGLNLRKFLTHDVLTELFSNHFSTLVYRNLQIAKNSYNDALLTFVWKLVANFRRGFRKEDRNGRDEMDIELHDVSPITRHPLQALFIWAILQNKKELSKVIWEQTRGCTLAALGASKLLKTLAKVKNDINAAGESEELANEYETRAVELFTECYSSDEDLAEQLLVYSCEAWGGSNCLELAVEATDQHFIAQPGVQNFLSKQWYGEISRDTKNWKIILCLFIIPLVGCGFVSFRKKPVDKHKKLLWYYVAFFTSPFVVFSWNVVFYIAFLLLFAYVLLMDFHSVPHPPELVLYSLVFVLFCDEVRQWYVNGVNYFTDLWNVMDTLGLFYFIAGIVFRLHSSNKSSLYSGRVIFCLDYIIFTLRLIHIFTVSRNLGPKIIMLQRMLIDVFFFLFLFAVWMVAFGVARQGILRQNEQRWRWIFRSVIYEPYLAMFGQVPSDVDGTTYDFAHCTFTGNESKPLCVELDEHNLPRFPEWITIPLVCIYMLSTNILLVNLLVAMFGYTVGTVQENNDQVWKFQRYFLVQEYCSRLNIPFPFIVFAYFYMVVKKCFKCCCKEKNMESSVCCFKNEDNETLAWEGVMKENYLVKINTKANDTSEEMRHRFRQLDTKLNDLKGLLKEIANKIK

SMILES	relative TRPM8 activation [%]	further results
CNC(=O)CSc1nc(-c2ccccc2)c(-c2ccccc2)o1 [Compound A-15, 2-(4,5-diphenyloxazol-2-yl)sulfanyl-N-methyl-acetamide]		EC50 (Table 6, read-out: TRPM8 EC50): 7140 nM; EC50 (Table 8, read-out: TRPM8 EC50): 7140 nM
CC(C)CNC(=O)CSc1nc(-c2ccccc2)c(-c2ccccc2)o1 [Compound A-65, 2-(4,5-diphenyloxazol-2-yl)sulfanyl-N-isobutyl-acetamide]	−1	
COCC(C)NC(=O)CSc1nc(-c2ccccc2)c(-c2ccccc2)o1 (centres unmarked) [Compound A-67, 2-(4,5-diphenyloxazol-2-yl)sulfanyl-N-(2-methoxy-1-methyl-ethyl)acetamide]	−2	
CNC(=O)CCc1nc(-c2ccc(C)cc2)c(-c2ccc(C)cc2)o1 [Compound A-32, 3-[4,5-bis (p-tolyl)oxazol-2-yl]-N-methyl-propanamide]	23	
CNC(=O)CCSc1nc(-c2ccccc2)c(-c2ccccc2)o1 [Compound A-49, 3-(4,5-diphenyloxazol-2-yl)sulfanyl-N-methyl-propanamide]	2	
CC(Sc1nc(-c2ccccc2)c(-c2ccccc2)o1)C(=O)NC1CCCC1 (centres unmarked) [Compound A-30, N-cyclopentyl-2-(4,5-diphenyloxazol-2-yl)sulfanyl-propanamide]	26	
CNC(=O)C(C)Sc1ncco1 (centres unmarked) [Compound A-50, N-methyl-2-oxazol-2-ylsulfanyl-propanamide]	1	
CC(=O)OCCSc1nc(-c2ccccc2)c(-c2ccccc2)o1 [Compound A-57, 2-(4,5-diphenyloxazol-2-yl)sulfanylethyl acetate]	1	
CSCC(=O)N1CCCCC1c1nc(-c2ccc(C)cc2)co1 (centres unmarked) [Compound A-08, 2-methylsulfanyl-1-[2-[4-(p-tolyl)oxazol-2-yl]-1-piperidyl] ethanone]		EC50 [1]: ≤ 1000 nM; EC50 (Table 6, read-out: TRPM8 EC50): 110 nM; EC50 (Table 8, read-out: TRPM8 EC50): 110 nM
CNC(=O)CCSc1ncco1 [Compound A-45, N-methyl-3-oxazol-2-ylsulfanyl-propanamide]	2	
CC(Sc1nc(-c2ccccc2)c(-c2ccccc2)o1)C(=O)NC(C)(C)C (centres unmarked) [Compound A-33, N-tert-butyl-2-(4,5-diphenyloxazol-2-yl) sulfanyl-propanamide]	21	
CNC(=O)C(C)Sc1nc(-c2ccccc2)c(-c2ccccc2)[nH]1 (centres unmarked) [Compound A-47, 2-[(4,5-diphenyl-1H-imidazol-2-yl)sulfanyl]-N-methyl-propanamide]	2	
CNC(=O)C(C)Sc1nc(-c2ccccc2)c(-c2ccccc2)o1 (centres unmarked) [Compound A-03, 2-(4,5-diphenyloxazol-2-yl)sulfanylpropa noyl-methyl-ammonium; chloride]		EC50 [1]: ≤ 1000 nM; EC50 (Table 6, read-out: TRPM8 EC50): 10 nM; EC50 (Table 8, read-out: TRPM8 EC50): 10 nM
CCC(Sc1nnc(-c2ccccc2)c(-c2ccccc2)n1)C(=O)NC (centres unmarked) [Compound B-03, 2-[(5,6-diphenyl-1,2,4-triazin-3-yl)sulfanyl]-N-methyl-butanamide]		EC50 [1]: ≤ 1000 nM; EC50 (Table 5, read-out: TRPM8 EC50): 70 nM; EC50 (Table 7, read-out: TRPM8 EC50): 70 nM
CNC(=O)C(C)S(=O)(=O)c1nc(-c2ccccc2)c(-c2ccccc2)o1 (centres unmarked) [Compound A-28, 2-(4,5-diphenyloxazol-2-yl)sulfonyl-N-methyl-propanamide]	40	
CCNC(=O)CSc1nc(-c2ccccc2)c(-c2ccccc2)o1 [Compound A-17, 2-(4,5-diphenyloxazol-2-yl)sulfanyl-N-ethyl-acetamide]		EC50 (Table 6, read-out: TRPM8 EC50): 5850 nM; EC50 (Table 8, read-out: TRPM8 EC50): 5850 nM
CC(C)NC(=O)CSc1nc(-c2ccccc2)c(-c2ccccc2)o1 [Compound A-19, 2-(4,5-diphenyloxazol-2-yl)sulfanyl-N-isopropyl-acetamide]	75	
CN(C)c1nc(-c2ccccc2)c(-c2ccccc2)o1 [Compound A-71, N,N-dimethyl-4,5-diphenyl-oxazol-2-amine]	−3	
CNCCc1nc(-c2ccccc2)c(-c2ccccc2)o1.Cl [Compound A-62, 2-(4,5-diphenyloxazol-2-yl)ethyl-methyl-ammonium; chloride]	0	
COC(=O)CCc1nc(-c2ccccc2)c(-c2ccccc2)o1 [Compound A-73, methyl 3-(4,5-diphenyloxazol-2-yl)propanoate]	−5	
CC(=O)NCCc1nc(-c2ccccc2)c(-c2ccccc2)o1 [Compound A-24, N-[2-(4,5-diphenyloxazol-2-yl)ethyl] acetamide]	56	EC50 (Table 6, read-out: TRPM8 EC50): 11300 nM; EC50 (Table 8, read-out: TRPM8 EC50): 11300 nM

More lines, main results first:

relative TRPM8 activation [%]	SMILES	further results
−2	COC(=O)C(C)Nc1nnc(-c2ccccc2)c(-c2ccccc2)n1 (centres unmarked) [Compound B-63, methyl 2-[(5,6-diphenyl-1,2,4-triazin-3-yl)amino]propanoate]	
8	CN(C)CCOc1nnc(-c2ccccc2)c(-c2ccccc2)n1 [Compound B-42, 2-[(5,6-diphenyl-1,2,4-triazin-3-yl)oxy]-N,N-dimethyl-ethanamine]	
3	c1ccc(-c2nnc(NCCC3CC3)nc2-c2ccccc2)cc1 [Compound B-50, N-(2-cyclopropylethyl)-5,6-diphenyl-1,2,4-triazin-3-amine]	
5	CC(Sc1nnc(-c2ccccc2)c(-c2ccccc2)n1)C(=O)O (centres unmarked) [Compound B-44, 2-[(5,6-diphenyl-1,2,4-triazin-3-yl)sulfanyl]propanoic acid]	
3	c1ccc(CSc2nnc(-c3ccccc3)c(-c3ccccc3)n2)cc1 [Compound B-49, 3-benzylsulfanyl-5,6-diphenyl-1,2,4-triazine]	
11	Cc1ccc(-c2nnc(SC(C)C(=O)N3CCCC3)nc2-c2ccc(C)cc2)cc1 (centres unmarked) [Compound B-38, 2-[[5,6-bis(p-tolyl)-1,2,4-triazin-3-yl]sulfanyl]-1-pyrrolidin-1-yl-propan-1-one]	
13	CCSc1nnc(-c2ccccc2)c(-c2ccccc2)n1 [Compound B-37, 3-ethylsulfanyl-5,6-diphenyl-1,2,4-triazine]	
1	CNC(=O)C(C)Sc1nnc(C)c(C)n1 (centres unmarked) [Compound B-60, 2-[(5,6-dimethyl-1,2,4-triazin-3-yl)sulfanyl]-N-methyl-propanamide]	
2	O=C(COc1nnc(-c2ccccc2)c(-c2ccccc2)n1)NC1CC1 [Compound B-53, N-cyclopropyl-2-[(5,6-diphenyl-1,2,4-triazin-3-yl)oxy]acetamide]	
5	OCCSc1nnc(-c2ccccc2)c(-c2ccccc2)n1 [Compound B-46, 2-[(5,6-diphenyl-1,2,4-triazin-3-yl)sulfanyl]ethanol]	
1	OCCNc1nnc(-c2ccccc2)c(-c2ccccc2)n1 [Compound B-58, 2-[(5,6-diphenyl-1,2,4-triazin-3-yl)amino]ethanol]	
57	CC(C)C(=O)CSc1nnc(-c2ccccc2)c(-c2ccccc2)n1 [Compound B-25, 1-[(5,6-diphenyl-1,2,4-triazin-3-yl)sulfanyl]-3-methyl-butan-2-one]	
20	CN(C)CCSc1nnc(-c2ccccc2)c(-c2ccccc2)n1 [Compound B-36, 2-[(5,6-diphenyl-1,2,4-triazin-3-yl)sulfanyl]-N,N-dimethyl-ethanamine]	
